{"source": "ChEMBL document CHEMBL3885881", "about": "“DrugMatrix”", "species_on_record": "Rattus norvegicus", "assay": "DrugMatrix - Regimen: Daily Repeat", "format": "toxicity, organism-based, Sprague-Dawley", "design": "regimen Daily Repeat, gender Male, age 6-8 weeks", "conditions": "in vivo, po, 10 mg/kg, route oral GAVAGE, dose level Low, vehicle .5 % CMC; for ABSOLUTE BASOPHIL / ABSOLUTE EOSINOPHIL / ABSOLUTE LYMPHOCYTE / ABSOLUTE MONOCYTE / ABSOLUTE SEGMENTED NEUTROPHIL / BASOPHIL / EOSINOPHIL / ERYTHROCYTE COUNT / HEMATOCRIT / HEMOGLOBIN / LEUKOCYTE COUNT / LYMPHOCYTE / MEAN CORPUSCULAR HEMOGLOBIN / MEAN CORPUSCULAR HEMOGLOBIN CONCENTRATION / MEAN CORPUSCULAR VOLUME / MONOCYTE / NEUTROPHIL / NUCLEATED RED BLOOD CELLS / PLATELET COUNT: tissue Blood; for ALANINE AMINOTRANSFERASE / ALBUMIN / ALKALINE PHOSPHATASE / ASPARTATE AMINOTRANSFERASE / BLOOD UREA NITROGEN / CARBON DIOXIDE / CHLORIDE / CHOLESTEROL / CREATINE PHOSPHOKINASE / CREATININE / GLUCOSE / LACTATE DEHYDROGENASE / LIPASE / PHOSPHORUS / POTASSIUM / SODIUM / TOTAL BILIRUBIN / TOTAL PROTEIN / URIC ACID: tissue Plasma", "data": [{"smiles": "Cc1ccc(S(=O)(=O)NC(=O)NN2CC3CCCC3C2)cc1", "note": "(stereo unspecified) [GLICLAZIDE]", "values": [{"measurement": "ABSOLUTE BASOPHIL", "setting": "72 h, time 3 day", "value": 0, "unit": "CELLS/uL"}, {"measurement": "ABSOLUTE EOSINOPHIL", "setting": "72 h, time 3 day", "value": 0, "unit": "CELLS/uL"}, {"measurement": "ABSOLUTE LYMPHOCYTE", "setting": "72 h, time 3 day", "value": 14055.67, "unit": "CELLS/uL"}, {"measurement": "ABSOLUTE MONOCYTE", "setting": "72 h, time 3 day", "value": 174.33, "unit": "CELLS/uL"}, {"measurement": "ABSOLUTE SEGMENTED NEUTROPHIL", "setting": "72 h, time 3 day", "value": 3203.33, "unit": "CELLS/uL"}, {"measurement": "BASOPHIL", "setting": "72 h, time 3 day", "value": 0, "unit": "%"}, {"measurement": "EOSINOPHIL", "setting": "72 h, time 3 day", "value": 0, "unit": "%"}, {"measurement": "ERYTHROCYTE COUNT", "setting": "72 h, time 3 day", "value": 5.24, "unit": "x10E6/uL"}, {"measurement": "HEMATOCRIT", "setting": "72 h, time 3 day", "value": 35.87, "unit": "%"}, {"measurement": "HEMOGLOBIN", "setting": "72 h, time 3 day", "value": 13.1, "unit": "G/DL"}, {"measurement": "LEUKOCYTE COUNT", "setting": "72 h, time 3 day", "value": 17.43, "unit": "x10E3/uL"}, {"measurement": "LYMPHOCYTE", "setting": "72 h, time 3 day", "value": 80.33, "unit": "%"}, {"measurement": "MEAN CORPUSCULAR HEMOGLOBIN", "setting": "72 h, time 3 day", "value": 25.37, "unit": "pg"}, {"measurement": "MEAN CORPUSCULAR HEMOGLOBIN CONCENTRATION", "setting": "72 h, time 3 day", "value": 36.67, "unit": "G/DL"}, {"measurement": "MEAN CORPUSCULAR VOLUME", "setting": "72 h, time 3 day", "value": 70.43, "unit": "fL"}, {"measurement": "MONOCYTE", "setting": "72 h, time 3 day", "value": 1, "unit": "%"}, {"measurement": "NEUTROPHIL", "setting": "72 h, time 3 day", "value": 18.67, "unit": "%"}, {"measurement": "NUCLEATED RED BLOOD CELLS", "setting": "72 h, time 3 day", "value": "7 /100WBC"}, {"measurement": "PLATELET COUNT", "setting": "72 h, time 3 day", "value": 1164.33, "unit": "x10E3/uL"}, {"measurement": "ALANINE AMINOTRANSFERASE", "setting": "72 h, time 3 day", "value": 49.67, "unit": "u/L"}, {"measurement": "ALBUMIN", "setting": "72 h, time 3 day", "value": 4.1, "unit": "G/DL"}, {"measurement": "ALKALINE PHOSPHATASE", "setting": "72 h, time 3 day", "value": 346.33, "unit": "u/L"}, {"measurement": "ASPARTATE AMINOTRANSFERASE", "setting": "72 h, time 3 day", "value": 96.67, "unit": "u/L"}, {"measurement": "BLOOD UREA NITROGEN", "setting": "72 h, time 3 day", "value": 16, "unit": "mg/dL"}, {"measurement": "CARBON DIOXIDE", "setting": "72 h, time 3 day", "value": 25, "unit": "mmol/L"}, {"measurement": "CHLORIDE", "setting": "72 h, time 3 day", "value": 100.33, "unit": "MEQ/L"}, {"measurement": "CHOLESTEROL", "setting": "72 h, time 3 day", "value": 66.67, "unit": "mg/dL"}, {"measurement": "CREATINE PHOSPHOKINASE", "setting": "72 h, time 3 day", "value": 653, "unit": "u/L"}, {"measurement": "CREATININE", "setting": "72 h, time 3 day", "value": 0.19, "unit": "mg/dL"}, {"measurement": "GLUCOSE", "setting": "72 h, time 3 day", "value": 179.33, "unit": "mg/dL"}, {"measurement": "LACTATE DEHYDROGENASE", "setting": "72 h, time 3 day", "value": 157.33, "unit": "u/L"}, {"measurement": "LIPASE", "setting": "72 h, time 3 day", "value": 10, "unit": "u/L"}, {"measurement": "PHOSPHORUS", "setting": "72 h, time 3 day", "value": 13.27, "unit": "mg/dL"}, {"measurement": "POTASSIUM", "setting": "72 h, time 3 day", "value": 6.4, "unit": "MEQ/L"}, {"measurement": "SODIUM", "setting": "72 h, time 3 day", "value": 142.3, "unit": "MEQ/L"}, {"measurement": "TOTAL BILIRUBIN", "setting": "72 h, time 3 day", "value": 0.27, "unit": "mg/dL"}, {"measurement": "TOTAL PROTEIN", "setting": "72 h, time 3 day", "value": 5.77, "unit": "G/DL"}, {"measurement": "URIC ACID", "setting": "72 h, time 3 day", "value": 2.23, "unit": "mg/dL"}, {"measurement": "ABSOLUTE BASOPHIL", "setting": "120 h, time 5 day", "value": 0, "unit": "CELLS/uL"}, {"measurement": "ABSOLUTE EOSINOPHIL", "setting": "120 h, time 5 day", "value": 0, "unit": "CELLS/uL"}, {"measurement": "ABSOLUTE LYMPHOCYTE", "setting": "120 h, time 5 day", "value": 12400.33, "unit": "CELLS/uL"}, {"measurement": "ABSOLUTE MONOCYTE", "setting": "120 h, time 5 day", "value": 0, "unit": "CELLS/uL"}, {"measurement": "ABSOLUTE SEGMENTED NEUTROPHIL", "setting": "120 h, time 5 day", "value": 2133, "unit": "CELLS/uL"}, {"measurement": "BASOPHIL", "setting": "120 h, time 5 day", "value": 0, "unit": "%"}, {"measurement": "EOSINOPHIL", "setting": "120 h, time 5 day", "value": 0, "unit": "%"}, {"measurement": "ERYTHROCYTE COUNT", "setting": "120 h, time 5 day", "value": 5.84, "unit": "x10E6/uL"}, {"measurement": "HEMATOCRIT", "setting": "120 h, time 5 day", "value": 35.33, "unit": "%"}, {"measurement": "HEMOGLOBIN", "setting": "120 h, time 5 day", "value": 14.07, "unit": "G/DL"}, {"measurement": "LEUKOCYTE COUNT", "setting": "120 h, time 5 day", "value": 14.53, "unit": "x10E3/uL"}, {"measurement": "LYMPHOCYTE", "setting": "120 h, time 5 day", "value": 86, "unit": "%"}, {"measurement": "MEAN CORPUSCULAR HEMOGLOBIN", "setting": "120 h, time 5 day", "value": 24.13, "unit": "pg"}, {"measurement": "MEAN CORPUSCULAR HEMOGLOBIN CONCENTRATION", "setting": "120 h, time 5 day", "value": 39.8, "unit": "G/DL"}, {"measurement": "MEAN CORPUSCULAR VOLUME", "setting": "120 h, time 5 day", "value": 60.6, "unit": "fL"}, {"measurement": "MONOCYTE", "setting": "120 h, time 5 day", "value": 0, "unit": "%"}, {"measurement": "NEUTROPHIL", "setting": "120 h, time 5 day", "value": 14, "unit": "%"}, {"measurement": "NUCLEATED RED BLOOD CELLS", "setting": "120 h, time 5 day", "value": "0 /100WBC"}, {"measurement": "PLATELET COUNT", "setting": "120 h, time 5 day", "value": 1074.33, "unit": "x10E3/uL"}, {"measurement": "ALANINE AMINOTRANSFERASE", "setting": "120 h, time 5 day", "value": 49, "unit": "u/L"}, {"measurement": "ALBUMIN", "setting": "120 h, time 5 day", "value": 4.23, "unit": "G/DL"}, {"measurement": "ALKALINE PHOSPHATASE", "setting": "120 h, time 5 day", "value": 441, "unit": "u/L"}, {"measurement": "ASPARTATE AMINOTRANSFERASE", "setting": "120 h, time 5 day", "value": 113.67, "unit": "u/L"}, {"measurement": "BLOOD UREA NITROGEN", "setting": "120 h, time 5 day", "value": 15.33, "unit": "mg/dL"}, {"measurement": "CARBON DIOXIDE", "setting": "120 h, time 5 day", "value": 25, "unit": "mmol/L"}, {"measurement": "CHLORIDE", "setting": "120 h, time 5 day", "value": 101.33, "unit": "MEQ/L"}, {"measurement": "CHOLESTEROL", "setting": "120 h, time 5 day", "value": 63.33, "unit": "mg/dL"}, {"measurement": "CREATINE PHOSPHOKINASE", "setting": "120 h, time 5 day", "value": 738.33, "unit": "u/L"}, {"measurement": "CREATININE", "setting": "120 h, time 5 day", "value": 0.19, "unit": "mg/dL"}, {"measurement": "GLUCOSE", "setting": "120 h, time 5 day", "value": 153.67, "unit": "mg/dL"}, {"measurement": "LACTATE DEHYDROGENASE", "setting": "120 h, time 5 day", "value": 958, "unit": "u/L"}, {"measurement": "LIPASE", "setting": "120 h, time 5 day", "value": 9, "unit": "u/L"}, {"measurement": "PHOSPHORUS", "setting": "120 h, time 5 day", "value": 11.2, "unit": "mg/dL"}, {"measurement": "POTASSIUM", "setting": "120 h, time 5 day", "value": 6.16, "unit": "MEQ/L"}, {"measurement": "SODIUM", "setting": "120 h, time 5 day", "value": 141.57, "unit": "MEQ/L"}, {"measurement": "TOTAL BILIRUBIN", "setting": "120 h, time 5 day", "value": 0.2, "unit": "mg/dL"}, {"measurement": "TOTAL PROTEIN", "setting": "120 h, time 5 day", "value": 5.97, "unit": "G/DL"}, {"measurement": "URIC ACID", "setting": "120 h, time 5 day", "value": 1.43, "unit": "mg/dL"}]}]}
